The test system of this test is X. dendrorhous Y-2476. The class given is cell-based, Xanthophyllomyces dendrorhous.

The record followed here is US20050124032A1 (priority 2002, published 2005).

As for `CC1=C(C)C(=O)C(C)=C(C)C1=O` [duroquinone], the Reduction of growth is reported as 15-25%.
